This note sets out measurements from patent US12410160B2 (Gilead Sciences, Inc., priority 2021, dated 2025).

One experiment addresses human KHK-C (Homo sapiens (Human), UniProt P50053). Put plainly: KHK Biochemical Assay (IC50), ADP-Glo, KHK-C. The conditions noted are these: ADP-Glo; average of at least two separate assays. In short, it runs like this:
(§1)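 ADP-Glo luminescence measured ADP made over a 4 h room-temperature reaction of ATP plus fructose, started after 30 min compound–enzyme pre-incubation. Buffer: 50 mM Hepes pH 7.4, 140 mM KCl, 5 mM MgCl2, 0.01% Triton-X. Enzyme was His-tagged, BL21 (DE3)-expressed, Ni-NTA-purified; compounds in 1:3 DMSO dilution series.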
(In general: ADP-Glo turns the ADP formed in a reaction into a luminescent signal.)

The next experiment deals with human KHK-A (Homo sapiens (Human), UniProt P50053). In words: KHK Biochemical Assay (IC50), ADP-Glo, KHK-A. The conditions noted are these: ADP-Glo; average of at least two separate assays. In short, it runs like this:
as §1

Experiment [1] concerns the target KHK-C expressed in NRK-52E cells (Homo sapiens (Human), UniProt P50053). Put plainly: KHK-C Cell-based Assay (EC50), NRK CTG, fructose-mediated ATP-depletion.

Sequence of human KHK-A (P50053 other isoform, or with tags, fused parts or gaps): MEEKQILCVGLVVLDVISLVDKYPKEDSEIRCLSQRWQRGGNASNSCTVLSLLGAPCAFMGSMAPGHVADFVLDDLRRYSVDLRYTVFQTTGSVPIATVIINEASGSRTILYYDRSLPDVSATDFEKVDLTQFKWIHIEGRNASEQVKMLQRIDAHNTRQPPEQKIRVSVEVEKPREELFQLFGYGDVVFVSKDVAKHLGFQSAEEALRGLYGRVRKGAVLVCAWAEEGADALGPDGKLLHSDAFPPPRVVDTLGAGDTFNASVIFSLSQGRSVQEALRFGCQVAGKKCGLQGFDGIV
Sequence of KHK-C expressed in NRK-52E cells (P50053 whole entry): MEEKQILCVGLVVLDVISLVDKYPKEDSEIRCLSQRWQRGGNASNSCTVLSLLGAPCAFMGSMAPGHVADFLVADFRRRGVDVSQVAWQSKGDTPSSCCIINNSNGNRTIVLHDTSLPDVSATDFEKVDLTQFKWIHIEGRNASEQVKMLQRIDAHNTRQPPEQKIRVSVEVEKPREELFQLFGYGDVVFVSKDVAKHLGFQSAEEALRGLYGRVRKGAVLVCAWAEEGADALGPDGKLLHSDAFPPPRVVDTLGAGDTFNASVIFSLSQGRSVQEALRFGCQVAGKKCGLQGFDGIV
Sequence of human KHK-C (P50053 whole entry): as above

One may read the IC50 as the concentration needed to halve the response being measured. Read a high IC50 as lower potency. As a reminder, the EC50 is the concentration giving half of the maximal effect. A higher EC50 goes with weaker potency. In the case of `C[C@H]1CCN1c1nc2c(c(-c3cnc(CN)s3)n1)CCC2` [Example 221, (S)-(5-(2-(2-methylazetidin-1-yl)-6,7-dihydro-5H-cyclopenta[d]pyrimidin-4-yl)thiazol-2-yl)methanamine], the IC50 against human KHK-C came out at 17.2 nM; against human KHK-A it was 17.8 nM. In experiment [1], this compound gave an EC50 of 94.4 nM.
On to `C[C@H]1[C@@H](F)CN1c1nc2c(c(-c3ccc(C(N)=O)cc3)n1)CCC2` [Example 226], for which the IC50 worked out at 17.2 nM against human KHK-C and 25.5 nM at human KHK-A. Moreover, in experiment [1], the 50% effective concentration (EC50) turned out to be 26.9 nM.
With `C[C@H]1CCN1c1nc2c(c(-c3cccc(CNC(=O)CCO)c3)n1)CCC2` [Example 227, 3-hydroxy-N-[[3-[2-[(2S)-2-methylazetidin-1-yl]-6,7-dihydro-5H-cyclopenta[d]pyrimidin-4-yl]phenyl]methyl]propanamide], the IC50 against human KHK-C amounted to 70.3 nM; at human KHK-A, 75.6 nM. Also, in experiment [1], the midpoint of the response, the EC50, lay at 265 nM.
With `C[C@H]1CCN1c1nc2c(c(-c3cccc(CNC(=O)CO)c3)n1)CCC2` [Example 231, 2-hydroxy-N-[[3-[2-[(2S)-2-methylazetidin-1-yl]-6,7-dihydro-5H-cyclopenta[d]pyrimidin-4-yl]phenyl]methyl]acetamide], the IC50 was found to be 50.6 nM against human KHK-C and 56.7 nM against human KHK-A. The same compound showed an EC50 in experiment [1] of 199 nM.
With `C[C@H]1CCN1c1nc2c(c(-c3ccc4ccc(C(=O)O)cc4c3)n1)CCC2` [Example 232, 7-[2-[(2S)-2-methylazetidin-1-yl]-6,7-dihydro-5H-cyclopenta[d]pyrimidin-4-yl]naphthalene-2-carboxylic acid], the IC50 against human KHK-C turned out to be 44.8 nM; against human KHK-A, 46.1 nM. The EC50 in experiment [1] was found to be 1630 nM.
As for `C[C@H]1CCN1c1nc2c(c(-c3ccc4c(c3)S(=O)(=O)CNC4=O)n1)CCC2` [Example 234, 7-[2-[(2S)-2-methylazetidin-1-yl]-6,7-dihydro-5H-cyclopenta[d]pyrimidin-4-yl]-1,1-dioxo-2,3-dihydro-1lambda6,3-benzothiazin-4-one], the concentration for half-maximal inhibition (IC50) against human KHK-C was found to be 18.9 nM; against human KHK-A, 39.1 nM. For the same compound, the EC50 in experiment [1] was determined as 56.4 nM.
Turning to `CO[C@@H]1CN(c2nc3c(c(-c4ccc(C(N)=O)cc4)n2)CCC3)[C@H]1C` [Example 235, 4-(2-((2S,3R)-3-methoxy-2-methylazetidin-1-yl)-6,7-dihydro-5H-cyclopenta[d]pyrimidin-4-yl)benzamide], the IC50 at human KHK-C and at human KHK-A was more than 5000 nM each time. The compound further had an EC50 in experiment [1] of more than 5000 nM.
Consider `C[C@H]1CCN1c1nc2c(c(-c3ccc4c(c3)C(=O)NC4=O)n1)CCC2` [Example 240, 5-[2-[(2S)-2-methylazetidin-1-yl]-6,7-dihydro-5H-cyclopenta[d]pyrimidin-4-yl]isoindoline-1,3-dione], for which the IC50 came out at 173 nM against human KHK-C and 183 nM against human KHK-A. The EC50 in experiment [1] worked out at 4980 nM.
For `C[C@H]1CCN1c1nc2c(c(-c3cccc(CC(N)=O)c3)n1)CCC2` [Example 244, 2-[3-[2-[(2S)-2-methylazetidin-1-yl]-6,7-dihydro-5H-cyclopenta[d]pyrimidin-4-yl]phenyl]acetamide], the IC50 came to 67.8 nM against human KHK-C and 149 nM against human KHK-A. Besides, in experiment [1], the EC50 is 102 nM.
Turning to `C[C@H]1CCN1c1nc2c(c(-c3ccc(CC(N)=O)cc3)n1)CCC2` [Example 245, 2-[4-[2-[(2S)-2-methylazetidin-1-yl]-6,7-dihydro-5H-cyclopenta[d]pyrimidin-4-yl]phenyl]acetamide], the IC50 against human KHK-C worked out at 80.3 nM; against human KHK-A it was 73.6 nM. This compound returned an EC50 in experiment [1] of 374 nM.
In the case of `C[C@H]1CCN1c1nc2c(c(-c3cccc(C(N)C(F)(F)F)c3)n1)CCC2` (stereo partly drawn) [Example 246, 2,2,2-trifluoro-1-[3-[2-[(2S)-2-methylazetidin-1-yl]-6,7-dihydro-5H-cyclopenta[d]pyrimidin-4-yl]phenyl]ethanamine], the IC50 against human KHK-C turned out to be 163 nM; against human KHK-A it was 360 nM. For the same compound, in experiment [1], a half-maximal effect (EC50) was put at 422 nM.
